ChEMBL document CHEMBL3414499, “Characterization of two distinct structural classes of selective aldehyde dehydrogenase 1A1 inhibitors” (J Med Chem, 2015)
Calls of active or inactive are those of the source. No cut-off for these calls is given here.

Experiments:
[1] = biological target: T1, Aldehyde dehydrogenase X, mitochondrial (Homo sapiens) (UniProt P30837); assay: Inhibition of recombinant human ALDH1B1 using propionaldehyde as substrate at 100 uM preincubated for 2 mins with NAD+ followed by substrate addition by UV-Vis spectrophotometric analysis
T1 sequence (whole entry): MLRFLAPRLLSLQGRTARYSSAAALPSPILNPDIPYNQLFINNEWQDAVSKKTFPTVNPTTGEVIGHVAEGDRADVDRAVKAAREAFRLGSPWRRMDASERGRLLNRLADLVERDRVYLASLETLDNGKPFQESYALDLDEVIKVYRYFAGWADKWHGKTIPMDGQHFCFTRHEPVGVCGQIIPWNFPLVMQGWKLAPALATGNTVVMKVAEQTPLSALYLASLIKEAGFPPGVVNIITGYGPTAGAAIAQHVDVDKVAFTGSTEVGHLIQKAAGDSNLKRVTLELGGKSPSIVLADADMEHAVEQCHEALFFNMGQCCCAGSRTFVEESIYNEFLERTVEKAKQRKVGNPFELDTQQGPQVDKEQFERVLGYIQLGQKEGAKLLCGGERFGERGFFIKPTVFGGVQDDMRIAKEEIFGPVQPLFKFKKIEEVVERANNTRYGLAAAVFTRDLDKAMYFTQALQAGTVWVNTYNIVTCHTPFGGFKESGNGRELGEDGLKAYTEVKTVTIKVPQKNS

Retinal dehydrogenase 2 = biological target: T2, Retinal dehydrogenase 2 (Homo sapiens, UniProt O94788); assay: Inhibition of recombinant human ALDH1A2 using propionaldehyde as substrate preincubated for 2 mins with NAD+ followed by substrate addition by UV-Vis spectrophotometric analysis
T2 sequence (O94788 whole entry): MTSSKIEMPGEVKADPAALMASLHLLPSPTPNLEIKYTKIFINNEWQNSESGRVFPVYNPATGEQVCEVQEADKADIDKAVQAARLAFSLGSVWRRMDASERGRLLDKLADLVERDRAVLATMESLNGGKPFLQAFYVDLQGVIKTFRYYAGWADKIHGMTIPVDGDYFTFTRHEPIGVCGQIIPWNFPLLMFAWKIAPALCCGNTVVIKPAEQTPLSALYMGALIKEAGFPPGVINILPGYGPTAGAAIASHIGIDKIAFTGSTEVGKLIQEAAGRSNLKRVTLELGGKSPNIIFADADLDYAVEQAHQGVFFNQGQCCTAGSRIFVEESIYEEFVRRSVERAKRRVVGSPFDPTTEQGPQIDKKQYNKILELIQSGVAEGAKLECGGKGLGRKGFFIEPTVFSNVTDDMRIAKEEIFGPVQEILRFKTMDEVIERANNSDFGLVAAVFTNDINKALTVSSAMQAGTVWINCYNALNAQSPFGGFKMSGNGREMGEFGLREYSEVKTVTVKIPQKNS

[2] = biological target: T3, Retinaldehyde dehydrogenase 3 (Homo sapiens, UniProt P47895); assay: Inhibition of recombinant human ALDH1A3 using propionaldehyde as substrate preincubated for 2 mins with NAD+ followed by substrate addition by UV-Vis spectrophotometric analysis
T3 sequence (P47895 whole entry): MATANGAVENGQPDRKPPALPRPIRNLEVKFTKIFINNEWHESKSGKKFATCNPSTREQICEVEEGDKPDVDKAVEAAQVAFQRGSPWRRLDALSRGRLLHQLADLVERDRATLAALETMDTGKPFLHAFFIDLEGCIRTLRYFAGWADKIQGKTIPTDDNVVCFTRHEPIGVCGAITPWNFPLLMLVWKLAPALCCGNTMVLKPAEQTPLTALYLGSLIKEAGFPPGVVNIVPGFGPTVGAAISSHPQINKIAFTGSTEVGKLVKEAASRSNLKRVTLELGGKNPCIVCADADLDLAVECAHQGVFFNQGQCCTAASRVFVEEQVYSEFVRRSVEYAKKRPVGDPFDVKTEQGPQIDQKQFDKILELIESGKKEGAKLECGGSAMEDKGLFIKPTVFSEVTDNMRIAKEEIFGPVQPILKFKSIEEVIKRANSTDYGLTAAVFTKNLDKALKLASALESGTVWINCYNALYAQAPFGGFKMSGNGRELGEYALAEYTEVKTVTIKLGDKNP

[3] = biological target: T4, Aldehyde dehydrogenase X, mitochondrial (Homo sapiens, UniProt P30837); assay: Inhibition of recombinant human ALDH1B1 using propionaldehyde as substrate preincubated for 2 mins with NAD+ followed by substrate addition by UV-Vis spectrophotometric analysis
T4 sequence (P30837 whole entry): T1 sequence (whole entry)

[4] = biological target: T5, Retinal dehydrogenase 2 (Homo sapiens) (UniProt O94788); assay: Activation of recombinant human ALDH1A2 using propionaldehyde as substrate at 100 uM preincubated for 2 mins with NAD+ followed by substrate addition by UV-Vis spectrophotometric analysis
T5 sequence (whole entry): T2 sequence (O94788 whole entry)

[5] = biological target: T6, Retinaldehyde dehydrogenase 3 (Homo sapiens) (UniProt P47895); assay: Inhibition of recombinant human ALDH1A3 using propionaldehyde as substrate at 100 uM preincubated for 2 mins with NAD+ followed by substrate addition by UV-Vis spectrophotometric analysis
T6 sequence (whole entry): T3 sequence (P47895 whole entry)

[6] = biological target: T1, Aldehyde dehydrogenase X, mitochondrial (Homo sapiens); assay: Activation of recombinant human ALDH1B1 using propionaldehyde as substrate at 100 uM preincubated for 2 mins with NAD+ followed by substrate addition by UV-Vis spectrophotometric analysis
[7] = biological target: T5, Retinal dehydrogenase 2 (Homo sapiens); assay: Effect on recombinant human ALDH1A2 using propionaldehyde as substrate at 20 uM preincubated for 2 mins with NAD+ followed by substrate addition by UV-Vis spectrophotometric analysis
[8] = biological target: T1, Aldehyde dehydrogenase X, mitochondrial (Homo sapiens); assay: Effect on recombinant human ALDH1B1 using propionaldehyde as substrate at 20 uM preincubated for 2 mins with NAD+ followed by substrate addition by UV-Vis spectrophotometric analysis
[9] = biological target: T7, Aldehyde dehydrogenase, mitochondrial (Homo sapiens) (UniProt P05091); assay: Effect on recombinant human ALDH2 using propionaldehyde as substrate at 20 uM preincubated for 2 mins with NAD+ followed by substrate addition by UV-Vis spectrophotometric analysis
T7 sequence (whole entry): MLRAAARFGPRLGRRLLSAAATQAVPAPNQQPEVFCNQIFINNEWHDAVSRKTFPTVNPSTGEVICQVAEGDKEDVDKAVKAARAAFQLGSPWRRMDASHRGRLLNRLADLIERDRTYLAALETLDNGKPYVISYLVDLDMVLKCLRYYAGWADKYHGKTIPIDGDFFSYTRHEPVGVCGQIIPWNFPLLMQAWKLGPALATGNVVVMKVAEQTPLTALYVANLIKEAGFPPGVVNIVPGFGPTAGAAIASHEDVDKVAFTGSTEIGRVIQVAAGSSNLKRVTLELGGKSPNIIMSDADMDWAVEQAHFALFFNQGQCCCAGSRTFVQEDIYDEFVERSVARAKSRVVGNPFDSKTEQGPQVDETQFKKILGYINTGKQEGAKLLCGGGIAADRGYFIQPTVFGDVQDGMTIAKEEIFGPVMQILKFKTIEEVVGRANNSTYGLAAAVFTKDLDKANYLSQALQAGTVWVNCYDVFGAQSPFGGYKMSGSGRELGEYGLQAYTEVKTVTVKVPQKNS

| SMILES | inhibition [1] | IC50 (Retinal dehydrogenase 2) | IC50 [3] | also measured |
| --- | --- | --- | --- | --- |
| CCCCn1c(Oc2ccc(C(=O)OC)cc2)nc2c1c(=O)n(C)c(=O)n2C | inactive | > 100 µM |  |  |
| CCCCn1c(CN2CCN(c3ccc(OC)cc3)CC2)nc2c1c(=O)n(C)c(=O)n2C |  |  | > 100 µM | IC50 [2]: > 100 µM |
| Cn1c(=O)c2c(nc(N3CCOCC3)n2Cc2ccccc2F)n(C)c1=O | inactive |  |  | Activity [4]: Active |
| Cn1c(=O)c2c(nc(CN3CCC(C(N)=O)CC3)n2CCCc2ccccc2)n(C)c1=O |  |  | > 100 µM | inhibition [5]: inactive |
| Cn1c(=O)c2c(nc(N3CCN(Cc4ccccc4)CC3)n2Cc2cccc(Cl)c2)n(C)c1=O |  | > 100 µM |  | Activity [6]: Active |
| CCCCn1c(CN2CCN(c3cccc(Cl)c3)CC2)nc2c1c(=O)n(C)c(=O)n2C |  | > 100 µM | > 100 µM | IC50 [2]: > 20 µM |
| CC(C)CCn1c(CN2CCOCC2)nc2c1c(=O)n(C)c(=O)n2C |  |  | > 100 µM | inhibition [5]: inactive |
| CC(C)CCn1c(CN(C)Cc2ccccc2)nc2c1c(=O)n(C)c(=O)n2C |  | > 100 µM | > 100 µM |  |
| CC(C)CCn1c(CN2CCN(C(=O)c3ccco3)CC2)nc2c1c(=O)n(C)c(=O)n2C |  |  |  | Activity [7]: inactive; Activity [8]: inactive; Activity [9]: inactive; Activity [4]: Active; Activity [6]: Active |
| CCN1CCN(Cc2nc3c(c(=O)n(C)c(=O)n3C)n2CC(=O)c2ccccc2)CC1 | inactive |  |  | inhibition [5]: inactive |
| Cn1c(=O)c2c(nc(SCC(N)=O)n2Cc2ccccc2F)n(C)c1=O | inactive |  |  |  |
